Columns and labels:
[1] = molecular target: T1, IKKε (Homo sapiens, UniProt Q14164); test: In-vitro IKKε kinase assay ([γ33]ATP filter-plate); assay type: biochemical; conditions: text bins; read-out: IC50 for inhibition of the kinase activity of IKKε
T1 construct: His-tag; made in house; host or cells: Sf9 insect cells
T1 sequence (Q14164 1-716): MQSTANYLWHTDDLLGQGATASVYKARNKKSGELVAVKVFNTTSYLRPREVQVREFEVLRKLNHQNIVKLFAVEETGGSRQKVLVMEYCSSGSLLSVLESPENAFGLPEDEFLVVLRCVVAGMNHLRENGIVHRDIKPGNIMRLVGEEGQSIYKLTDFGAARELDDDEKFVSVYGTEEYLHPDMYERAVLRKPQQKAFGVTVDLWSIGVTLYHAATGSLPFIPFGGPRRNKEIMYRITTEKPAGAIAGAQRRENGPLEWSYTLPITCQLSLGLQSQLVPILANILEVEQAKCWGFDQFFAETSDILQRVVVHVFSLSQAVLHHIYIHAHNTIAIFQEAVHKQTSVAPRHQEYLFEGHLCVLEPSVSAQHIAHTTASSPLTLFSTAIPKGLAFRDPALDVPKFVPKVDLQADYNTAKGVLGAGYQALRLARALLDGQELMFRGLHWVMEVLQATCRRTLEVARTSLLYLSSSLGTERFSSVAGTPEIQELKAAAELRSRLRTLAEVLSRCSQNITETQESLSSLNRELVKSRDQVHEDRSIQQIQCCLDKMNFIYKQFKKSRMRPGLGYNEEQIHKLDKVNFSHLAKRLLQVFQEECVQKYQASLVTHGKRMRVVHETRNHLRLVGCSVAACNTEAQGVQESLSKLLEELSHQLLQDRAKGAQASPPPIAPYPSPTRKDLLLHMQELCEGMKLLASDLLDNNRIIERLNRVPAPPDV
How it was run: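 His-tagged Sf9-expressed kinases at 0.1 or 0.02 μg/ml (TBK1) and 0.1 or 0.015 μg/ml (IKKε) for normal and sensitized formats, with myelin basic protein or casein substrate. ATP was at 2×Km (60 μM TBK1, 32 μM IKKε) plus 0.3 μCi [γ33]ATP. Reactions ran 30-45 min, were captured on P-81 filters, and counts were normalized to DMSO.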

[2] = molecular target: T2, TBK1 (Homo sapiens, UniProt Q9UHD2); test: In-vitro TBK1 kinase assay ([γ33]ATP filter-plate); assay type: biochemical; conditions: text bins; read-out: IC50 for inhibition of the kinase activity of TBK1
T2 construct: His-tag; made in house; host or cells: Sf9 insect cells
T2 sequence (Q9UHD2 1-729): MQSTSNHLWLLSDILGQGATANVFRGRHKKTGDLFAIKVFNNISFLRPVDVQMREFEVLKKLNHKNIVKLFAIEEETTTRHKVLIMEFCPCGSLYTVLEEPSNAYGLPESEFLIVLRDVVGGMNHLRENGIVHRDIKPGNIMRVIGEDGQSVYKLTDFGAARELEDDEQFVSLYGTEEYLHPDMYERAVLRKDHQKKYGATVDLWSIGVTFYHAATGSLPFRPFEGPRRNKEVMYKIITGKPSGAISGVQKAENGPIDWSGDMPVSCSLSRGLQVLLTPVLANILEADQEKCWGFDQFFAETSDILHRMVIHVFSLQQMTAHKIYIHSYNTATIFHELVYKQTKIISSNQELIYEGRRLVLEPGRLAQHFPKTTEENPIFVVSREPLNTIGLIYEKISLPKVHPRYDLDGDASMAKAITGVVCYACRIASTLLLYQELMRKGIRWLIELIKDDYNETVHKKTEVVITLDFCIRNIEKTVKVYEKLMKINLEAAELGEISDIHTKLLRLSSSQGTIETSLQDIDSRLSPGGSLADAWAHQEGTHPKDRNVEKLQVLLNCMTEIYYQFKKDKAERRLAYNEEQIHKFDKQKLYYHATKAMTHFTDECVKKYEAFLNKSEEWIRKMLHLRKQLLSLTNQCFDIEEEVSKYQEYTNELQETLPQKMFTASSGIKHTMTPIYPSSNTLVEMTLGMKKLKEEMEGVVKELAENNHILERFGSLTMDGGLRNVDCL
Method: IKKε enzyme was produced as a His-tag fusion in Sf9 cells and used at a final concentration of […]. TBK1 enzyme was produced as a His-tag fusion in Sf9 cells and used at a final concentration of 0.1 μg/ml. Kinase reactions were carried out in reaction buffer using myelin basic protein (Millipore, Ballerica, Mass.) or casein (Sigma, St. Louis, Mo.) as substrate at an ATP concentration equal to twice the Km,ATP value for each enzyme, corresponding to 32 μM ATP for IKKε and 60 μM ATP for TBK1, in the presence of 0.3 μCi [γ^33]ATP (PerkinElmer, Waltham, Mass.). Final enzyme concentrations were 0.1 or 0.015 μg/ml (IKKε) and 0.1 or 0.02 μg/ml (TBK1), representing “normal” and “sensitized” assay conditions respectively. Test compounds (or DMSO solvent as a control) were added prior to initiation of the reactions. Reactions were terminated after 30-45 minutes by adding 3% phosphoric acid. Terminated reactions were transferred to P-81 cellulose phosphate filterplates (Whatman, Inc., Piscataway, N.J.) and washed with 1% phosphoric acid on a vacuum apparatus. After air drying, scintillant (PerkinElmer, Waltham, Mass.) was added and the plates were read on a PerkinElmer TopCount NXT instrument. Counts were normalized to DMSO controls after background subtraction.

Structure (SMILES) | IC50 [1] [nM] | IC50 [2] [nM]
COc1ccc(-c2ccnc(Nc3ccc(S(=O)(=O)NCCCN)c(OC)c3)n2)cc1C#N [compound 383, N-(3-Aminopropyl)-4-{[4-(3-cyano-4-methoxyphenyl)pyrimidin-2-yl]amino}-2-methoxybenzene-sulfonamide] | 5 to 50 | 10 to 100
COc1cc(NC(=O)NCCCO)cc(Nc2nccc(-c3ccc(OC)c(C#N)c3)n2)c1 [compound 315, 1-(3-{[4-(3-Cyano-4-methoxyphenyl)pyrimidin-2-yl]amino}-5-methoxyphenyl)-3-(3-hydroxypropyl)urea] | 5 to 50 | < 10
CC(C)Oc1ccc(-c2ccnc(Nc3ccc(N4CCOCC4)cc3)n2)cc1C#N [Example 191, 5-(2-{[4-(Morpholin-4-yl)phenyl]amino}pyrimidin-4-yl)-2-(propan-2-yloxy)benzonitrile] | < 5 | < 10
N#Cc1cc(-c2ccnc(Nc3ccc(NC(=O)Nc4cccnc4)cc3)n2)ccc1OC1CCOCC1 [Example 14, 1-[4-({4-[3-cyano-4-(tetrahydro-2H-pyran-4-yloxy)phenyl]pyrimidin-2-yl}amino)phenyl]-3-pyridin-3-ylurea] | < 5 | < 10
N#Cc1cc(-c2ccnc(Nc3ccc(N)cc3)n2)ccc1OC1CCOCC1 [Example 184, 5-{2-[(4-Aminophenyl)amino]pyrimidin-4-yl}-2-(tetrahydro-2H-pyran-4-yloxy)benzonitrile] | < 5 | < 10
N#Cc1cc(-c2ccnc(Nc3ccc(N4CCOCC4)cc3)n2)ccc1OCC1CCCNC1 (centres unmarked) [Example 94] | 5 to 50 | 10 to 100
COc1ccc(-c2ccnc(Nc3cccc(Cl)c3)n2)cc1C#N [Example 260, 5-{2-[(3-Chlorophenyl)amino]pyrimidin-4-yl}-2-methoxybenzonitrile] | 50 to 500 | 10 to 100
COc1cc(Nc2nccc(-c3ccc(OC4CCN(C(=O)OC(C)(C)C)CC4)c(C#N)c3)n2)ccc1N1CCOCC1 [Example 263, tert-butyl 4-[2-cyano-4-(2-{[3-methoxy-4-(morpholin-4-yl)phenyl]amino}pyrimidin-4-yl)phenoxy]piperidine-1-carboxylate] |  | 100 to 500
N#Cc1cccc(-c2ccnc(Nc3ccc(Cl)cc3)n2)c1 [compound 340, 3-{2-[(4-Chlorophenyl)amino]pyrimidin-4-yl}benzonitrile] |  | 100 to 500
N#Cc1cccc(-c2ccnc(Nc3ccc(OCCN4CCOCC4)cc3)n2)c1 [Example 283, 3-[2-({4-[2-(Morpholin-4-yl)ethoxy]phenyl}amino)pyrimidin-4-yl]benzonitrile] |  | 10 to 100
N#Cc1cc(-c2ccnc(Nc3cccc(S(N)(=O)=O)c3)n2)ccc1OC1CCOCC1 [Example 146, 3-({4-[3-cyano-4-(tetrahydro-2H-pyran-4-yloxy)phenyl]pyrimidin-2-yl}amino) benzenesulfonamide] | 5 to 50 | 
N#Cc1cccc(-c2ccnc(Nc3cccc(Cl)c3)n2)c1 [compound 338, 3-{2-[(3-Chlorophenyl)amino]pyrimidin-4-yl}benzonitrile] | 50 to 500 | 
N#Cc1cc(-c2ccnc(Nc3cccc(-c4ccncc4)c3)n2)ccc1OC1CCOCC1 [compound 573, 5-(2-{[3-(Pyridin-4-yl)phenyl]amino}pyrimidin-4-yl)-2-(tetrahydro-2H-pyran-4-yloxy)benzonitrile] | < 5 | 
N#Cc1cc(-c2ccnc(Nc3ccc(CN4CC(O)C4)cc3)n2)ccc1O[C@@H]1CCN(C(=O)CO)C1 [compound 615, 2-{[(3R)-1-(Hydroxyacetyl)pyrrolidin-3-yl]oxy}-5-[2-({4-[(3-hydroxyazetidin-1-yl)methyl]phenyl}amino)pyrimidin-4-yl]benzonitrile] | < 5 | 
CN(C)C1CCN(c2ccc(-c3ccnc(Nc4ccc(N5CCOCC5)cc4)n3)cc2C#N)C1 (centres unmarked) [Example 69] | 50 to 500 | 
CC(=O)N1CCC(CCOc2ccc(-c3ccnc(Nc4ccc(N5CCOCC5)cc4)n3)cc2C#N)CC1 [Example 156, 2-[2-(1-acetylpiperidin-4-yl)ethoxy]-5-(2-{[4-(morpholin-4-yl)phenyl}amino}pyrimidin-4-yl)benzonitrile] | 5 to 50 | 
COc1ccc(-c2ccnc(Nc3cc(CN4CCC[C@H]4C(=O)N(C)C)c(OC)c(OC)c3)n2)cc1C#N [Example 245, 1-(5-{[4-(3-Cyano-4-methoxyphenyl)pyrimidin-2-yl]amino}-2,3-dimethoxybenzyl)-N,N-dimethylprolinamide] | 50 to 500 | 
CC(=O)OC(C)C(=O)Nc1ccc(-c2ccnc(Nc3ccc(N4CCOCC4)cc3)n2)cc1C#N (centres unmarked) [Example 147, 1-{[2-cyano-4-(2-{[4-(morpholin-4-yl)phenyl]amino}pyrimidin-4-yl)phenyl]amino}-1-oxopropan-2-yl acetate] | 50 to 500 | 
CC(C)C(=O)Nc1ccc(-c2ccnc(Nc3ccc(CCO)cc3)n2)cc1C#N [compound 464, N-[2-cyano-4-(2-{[4-(2-hydroxyethyl)phenyl]amino}pyrimidin-4-yl)phenyl]-2-methylpropanamide] | 5 to 50 | 
CC(C)C(=O)Nc1ccc(-c2ccnc(Nc3ccc(N4CCOCC4)cc3)n2)cc1C#N [Example 267, N-[2-Cyano-4-(2-{[4-(morpholin-4-yl)phenyl]amino}pyrimidin-4-yl)phenyl]-2-methylpropanamide] | 5 to 50 | 
N#Cc1cc(-c2ccnc(Nc3ccc(N4CCOCC4)cc3)n2)ccc1NC(=O)C1CCCC1 [Example 56, N-[2-cyano-4-(2-{[4-(morpholin-4-yl)phenyl]amino}pyrimidin-4-yl)phenyl] cyclopentane-carboxamide] | 5 to 50 | 
N#Cc1cc(-c2ccnc(Nc3ccc(S(=O)(=O)Nc4nccs4)cc3)n2)ccc1OC1CCOCC1 [compound 575, 4-({4-[3-Cyano-4-(tetrahydro-2H-pyran-4-yloxy)phenyl]pyrimidin-2-yl}amino)-N-(1,3-thiazol-2-yl) benzenesulfonamide] | < 5 | 
N#Cc1cc(-c2ccnc(Nc3ccc(N4CCOCC4)cc3)n2)ccc1OC1CN(C(=O)CO)C1 [Example 131, 2-{[1-(hydroxyacetyl)azetidin-3-yl]oxy}-5-(2-{[4-(morpholin-4-yl)phenyl]amino}pyrimidin-4-yl)benzonitrile] | 50 to 500 | 
COc1cc(Nc2nccc(-c3ccc(OC)c(C#N)c3)n2)cc(C(=O)N2CC[C@@H](O)C2)c1 [compound 382, 5-{2-[(3-{[(3R)-3-Hydroxypyrrolidin-1-yl]carbonyl}-5-methoxyphenyl)amino]pyrimidin-4-yl}-2-methoxybenzonitrile] | 50 to 500 | 
COc1ccc(-c2ccnc(Nc3cccc(S(=O)(=O)NCCO)c3)n2)cc1C#N [compound 309, 3-{[4-(3-Cyano-4-methoxyphenyl)pyrimidin-2-yl]amino}-N-(2-hydroxyethyl) benzenesulfonamide] | 50 to 500 | 
